# Assays:
# rat mGlu5 receptor = target: T1, rat mGlu5 receptor (Rattus norvegicus, UniProt P31424); assay: [3H]MPEP binding to rat mGlu5 receptor CHO-dhfr− membranes; settings: rat mGlu5 receptor containing membranes; positive control
# T1 construct: host or cells: CHO-dhfr- cells
# rat mGlu1a receptor [1] = target: T2, rat mGlu1a receptor (Rattus norvegicus, UniProt P23385); assay: Intracellular Ca2+ response in rat mGlu1a receptor expressing CHO-dhfr− cells (FLIPR); assay type: cell-based; settings: CHO-dhfr− cells expressing rat mGlu1a; same assay; read-out: IC50, inhibition of the glutamate-induced increase in [Ca2+]i
# T2 construct: host or cells: CHO-dhfr- cells
# rat mGlu1a receptor [2] = target: T2, rat mGlu1a receptor; assay: [3H]Compound A binding to rat mGlu1a receptor CHO-dhfr− membranes (saturation, kinetics, inhibition); settings: 2.5 nM [3H]Compound A, 30 min at 4° C.; mean ± SD of 3–4 experiments
# rat mGlu1a receptor [3] = target: T2, rat mGlu1a receptor; assay: [3H]quisqualate binding to rat mGlu1a receptor CHO-dhfr− membranes (saturation, inhibition)
# T2 sequence (P23385 19-1199): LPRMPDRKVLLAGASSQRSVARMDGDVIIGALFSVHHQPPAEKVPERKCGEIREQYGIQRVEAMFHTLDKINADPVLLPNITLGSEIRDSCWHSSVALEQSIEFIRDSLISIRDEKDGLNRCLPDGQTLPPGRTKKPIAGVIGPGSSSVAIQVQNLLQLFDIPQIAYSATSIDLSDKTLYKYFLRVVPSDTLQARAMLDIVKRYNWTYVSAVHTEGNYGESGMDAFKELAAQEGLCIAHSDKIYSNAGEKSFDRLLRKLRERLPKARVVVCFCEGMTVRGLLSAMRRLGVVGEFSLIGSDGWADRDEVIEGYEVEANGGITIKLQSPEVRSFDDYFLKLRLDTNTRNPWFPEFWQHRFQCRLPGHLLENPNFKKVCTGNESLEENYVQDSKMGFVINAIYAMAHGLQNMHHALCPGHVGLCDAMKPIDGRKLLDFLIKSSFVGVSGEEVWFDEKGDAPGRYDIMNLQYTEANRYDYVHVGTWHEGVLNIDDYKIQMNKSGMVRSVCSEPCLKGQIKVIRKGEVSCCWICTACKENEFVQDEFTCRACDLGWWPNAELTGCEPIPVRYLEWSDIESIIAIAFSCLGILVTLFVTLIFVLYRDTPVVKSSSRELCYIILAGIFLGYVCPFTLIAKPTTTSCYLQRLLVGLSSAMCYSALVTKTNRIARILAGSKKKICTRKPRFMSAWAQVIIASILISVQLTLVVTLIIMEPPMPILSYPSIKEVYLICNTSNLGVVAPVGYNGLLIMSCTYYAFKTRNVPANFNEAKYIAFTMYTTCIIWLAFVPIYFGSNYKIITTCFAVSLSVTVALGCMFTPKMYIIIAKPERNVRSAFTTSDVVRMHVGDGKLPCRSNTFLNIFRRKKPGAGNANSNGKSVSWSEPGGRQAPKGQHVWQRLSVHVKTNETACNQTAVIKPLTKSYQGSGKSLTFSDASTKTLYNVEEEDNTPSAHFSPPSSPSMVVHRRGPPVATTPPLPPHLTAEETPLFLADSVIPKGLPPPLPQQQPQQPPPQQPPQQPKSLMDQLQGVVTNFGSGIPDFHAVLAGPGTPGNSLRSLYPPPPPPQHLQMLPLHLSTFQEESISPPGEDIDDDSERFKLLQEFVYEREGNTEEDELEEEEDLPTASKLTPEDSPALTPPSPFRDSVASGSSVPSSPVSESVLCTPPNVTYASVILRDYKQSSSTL
# T1 sequence (P31424 21-1203): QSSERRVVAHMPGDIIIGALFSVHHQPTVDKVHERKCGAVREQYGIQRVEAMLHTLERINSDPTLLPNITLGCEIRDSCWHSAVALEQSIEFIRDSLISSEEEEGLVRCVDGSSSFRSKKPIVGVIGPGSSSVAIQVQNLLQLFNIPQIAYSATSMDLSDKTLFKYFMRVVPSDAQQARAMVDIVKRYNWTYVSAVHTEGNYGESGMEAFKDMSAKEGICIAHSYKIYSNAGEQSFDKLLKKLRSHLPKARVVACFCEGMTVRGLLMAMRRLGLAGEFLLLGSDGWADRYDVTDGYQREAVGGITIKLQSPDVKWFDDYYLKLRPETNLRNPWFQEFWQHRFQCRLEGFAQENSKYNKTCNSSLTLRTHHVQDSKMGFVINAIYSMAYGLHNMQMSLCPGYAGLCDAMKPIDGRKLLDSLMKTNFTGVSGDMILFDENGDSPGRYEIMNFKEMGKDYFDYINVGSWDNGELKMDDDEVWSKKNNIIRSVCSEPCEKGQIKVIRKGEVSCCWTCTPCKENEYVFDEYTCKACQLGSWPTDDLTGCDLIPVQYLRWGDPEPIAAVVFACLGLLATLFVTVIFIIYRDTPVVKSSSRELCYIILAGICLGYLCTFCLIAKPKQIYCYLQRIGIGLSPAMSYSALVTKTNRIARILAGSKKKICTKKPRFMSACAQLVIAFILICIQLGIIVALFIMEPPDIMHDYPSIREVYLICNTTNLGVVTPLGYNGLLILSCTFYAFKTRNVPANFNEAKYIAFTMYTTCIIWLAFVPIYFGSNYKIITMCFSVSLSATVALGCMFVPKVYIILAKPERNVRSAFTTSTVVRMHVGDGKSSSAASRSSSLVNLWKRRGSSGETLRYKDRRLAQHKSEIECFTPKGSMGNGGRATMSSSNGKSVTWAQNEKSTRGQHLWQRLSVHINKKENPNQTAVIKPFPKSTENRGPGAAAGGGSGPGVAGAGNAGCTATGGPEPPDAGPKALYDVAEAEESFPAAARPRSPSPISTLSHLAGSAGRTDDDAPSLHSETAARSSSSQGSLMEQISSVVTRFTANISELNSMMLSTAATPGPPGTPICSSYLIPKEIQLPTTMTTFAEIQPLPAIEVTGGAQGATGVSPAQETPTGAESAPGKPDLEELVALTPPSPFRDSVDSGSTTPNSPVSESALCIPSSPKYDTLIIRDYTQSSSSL
specific binding (rat mGlu5 receptor) [%],IC50 (rat mGlu1a receptor [1]) [µM],Ki (rat mGlu1a receptor [2]) [nM],Ki (rat mGlu1a receptor [3]) [µM],SMILES
95,–,–,–,Cc1cccc(C#Cc2ccccc2)n1 [[^3H]MPEP]
–,10.3 ± 0.8,4900,> 1000,"CCOC(=O)[C@]12CC1/C(=N\O)c1ccccc1O2 (mixture of isomers) [CPCCOEt, reference compound]"
